Measured values reported in PubChem BioAssay AID248 (DTP/NCI, 2004).
Several values for one entry are separate records, joined by “and”; a condition that tells them apart may be missing. Equal entries are not always repeated. Inconclusive results and toxic doses are left out.

Test system: L1210 leukemia ip in BDF1 mice, survival T/C
Experiment: NCI In Vivo Anticancer Drug Screen. Data for tumor model L1210 Leukemia (intraperitoneal) in B6D2F1 (BDF1) mice
Conditions: higher = longer survival
In short: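 Mice bearing the transplanted tumor received compound or vehicle. Survival of the treated group was divided by that of the vehicle-treated control group to give the ratio.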

SMILES: CC(C)[C@]12O[C@H]1[C@@H]1O[C@]13[C@]1(O[C@H]1C[C@H]1C4=C(C(=O)OC4)[C@@H](O)C[C@@]13C)[C@@H]2O
- T/C (endpoint: mean survival time, dose: 2.4 micrograms/kg/injection, schedule: Q01DX009 (oral), vehicle: Klucel (hydroxypropylcellulose) (HPC)): 105 % of control
- T/C (endpoint: mean survival time, dose: 4.8 micrograms/kg/injection, schedule: Q01DX009 (oral), vehicle: Klucel (hydroxypropylcellulose) (HPC)): 102 % of control
- T/C (endpoint: mean survival time, dose: 9.5 micrograms/kg/injection, schedule: Q01DX009 (oral), vehicle: Klucel (hydroxypropylcellulose) (HPC)): 101 % of control
- T/C (endpoint: mean survival time, dose: 13.0 micrograms/kg/injection, schedule: Q01DX009 (ip), vehicle: saline): 94 % of control and 111 % of control
- T/C (endpoint: mean survival time, dose: 19.0 micrograms/kg/injection, schedule: Q01DX009 (oral), vehicle: Klucel (hydroxypropylcellulose) (HPC)): 116 % of control
- T/C (endpoint: mean survival time, dose: 25.0 micrograms/kg/injection, schedule: Q01DX009 (ip), vehicle: saline): 108 % of control and 110 % of control
- T/C (endpoint: mean survival time, dose: 38.0 micrograms/kg/injection, schedule: Q01DX009 (oral), vehicle: Klucel (hydroxypropylcellulose) (HPC)): 107 % of control
- T/C (endpoint: mean survival time, dose: 38.0 micrograms/kg/injection, schedule: Q01DX009 (oral), vehicle: saline + alcohol): 103 % of control
- T/C (endpoint: mean survival time, dose: 100.0 micrograms/kg/injection, schedule: Q01DX009 (ip), vehicle: saline): 150 % of control and 159 % of control
- T/C (endpoint: mean survival time, dose: 200.0 micrograms/kg/injection, schedule: Q01DX009 (ip), vehicle: saline): 198 % of control
- T/C (endpoint: median survival time, dose: 0.06 mg/kg/injection, schedule: Q01DX009 (ip), vehicle: saline + alcohol): 113 % of control
- T/C (endpoint: median survival time, dose: 0.06 mg/kg/injection, schedule: Q01DX009 (ip), vehicle: saline with Tween-80): 114 % of control and 124 % of control
- T/C (endpoint: median survival time, dose: 0.06 mg/kg/injection, schedule: Q01DX009 (sc), vehicle: saline + alcohol): 102 % of control
- T/C (endpoint: median survival time, dose: 0.06 mg/kg/injection, schedule: Q04DX003 (ip), vehicle: saline + alcohol): 98 % of control
- T/C (endpoint: median survival time, dose: 0.12 mg/kg/injection, schedule: Q01DX009 (sc), vehicle: saline + alcohol): 107 % of control
- T/C (endpoint: median survival time, dose: 0.12 mg/kg/injection, schedule: Q04DX003 (ip), vehicle: saline + alcohol): 106 % of control
- T/C (endpoint: median survival time, dose: 0.12 mg/kg/injection, schedule: Q08DX002 (ip), vehicle: saline + alcohol): 102 % of control
- T/C (endpoint: median survival time, dose: 0.13 mg/kg/injection, schedule: Q01DX009 (ip), vehicle: saline + alcohol): 156 % of control
- T/C (endpoint: median survival time, dose: 0.13 mg/kg/injection, schedule: Q01DX009 (oral), vehicle: saline + alcohol): 100 % of control and 120 % of control
- T/C (endpoint: median survival time, dose: 0.25 mg/kg/injection, schedule: Q01DX001 (ip), vehicle: saline + alcohol): 102 % of control
- T/C (endpoint: median survival time, dose: 0.25 mg/kg/injection, schedule: Q01DX009 (ip), vehicle: saline + alcohol): 178 % of control and 195 % of control
- T/C (endpoint: median survival time, dose: 0.25 mg/kg/injection, schedule: Q01DX009 (ip), vehicle: saline with Tween-80): 185 % of control and 202 % of control
- T/C (endpoint: median survival time, dose: 0.25 mg/kg/injection, schedule: Q01DX009 (sc), vehicle: saline + alcohol): 151 % of control
- T/C (endpoint: median survival time, dose: 0.25 mg/kg/injection, schedule: Q04DX003 (ip), vehicle: saline + alcohol): 107 % of control
- T/C (endpoint: median survival time, dose: 0.25 mg/kg/injection, schedule: Q08DX002 (ip), vehicle: saline + alcohol): 109 % of control
- T/C (endpoint: median survival time, dose: 0.5 mg/kg/injection, schedule: Q01DX001 (ip), vehicle: saline + alcohol): 113 % of control
- T/C (endpoint: median survival time, dose: 0.5 mg/kg/injection, schedule: Q01DX009 (ip), vehicle: saline + alcohol): 95 % of control
- T/C (endpoint: median survival time, dose: 0.5 mg/kg/injection, schedule: Q04DX003 (ip), vehicle: saline + alcohol): 113 % of control
- T/C (endpoint: median survival time, dose: 0.5 mg/kg/injection, schedule: Q08DX002 (ip), vehicle: saline + alcohol): 114 % of control
- T/C (endpoint: median survival time, dose: 8.0 micrograms/kg/injection, schedule: Q03HX024 (ip), vehicle: saline + alcohol): 104 % of control
- T/C (endpoint: median survival time, dose: 8.0 micrograms/kg/injection, schedule: Q03HX024 (sc), vehicle: saline + alcohol): 94 % of control
- T/C (endpoint: median survival time, dose: 15.6 micrograms/kg/injection, schedule: Q03HX024 (sc), vehicle: saline + alcohol): 98 % of control
- T/C (endpoint: median survival time, dose: 16.0 micrograms/kg/injection, schedule: Q03HX024 (oral), vehicle: saline + alcohol): 98 % of control and 101 % of control
- T/C (endpoint: median survival time, dose: 31.2 micrograms/kg/injection, schedule: Q03HX008 (ip), vehicle: saline + alcohol): 117 % of control
- T/C (endpoint: median survival time, dose: 31.2 micrograms/kg/injection, schedule: Q03HX024 (ip), vehicle: saline + alcohol): 157 % of control
- T/C (endpoint: median survival time, dose: 31.2 micrograms/kg/injection, schedule: Q03HX024 (sc), vehicle: saline + alcohol): 103 % of control
- T/C (endpoint: median survival time, dose: 31.3 micrograms/kg/injection, schedule: Q03HX024 (oral), vehicle: saline + alcohol): 110 % of control
- T/C (endpoint: median survival time, dose: 62.5 micrograms/kg/injection, schedule: Q03HX024 (ip), vehicle: saline + alcohol): 162 % of control
- T/C (endpoint: median survival time, dose: 62.5 micrograms/kg/injection, schedule: Q03HX024 (sc), vehicle: saline + alcohol): 165 % of control
